Measured values taken from ChEMBL document CHEMBL5050844 (2019).

Assays:
[1] = Induction of anti-CD3/CD28 antibodies-stimulated human T cell activation at 1 uM assessed fold increase in CD25 expression measured by ELISA assay; type: functional, T cell line
[2] = Induction of anti-CD3 antibodies-stimulated human T cell activation at 8 uM assessed fold increase in CD25 expression measured by ELISA assay; type: functional, T cell line; note: reference of the scale not given here
[3] = Induction of anti-CD3 antibodies-stimulated human T cell activation at 8 uM assessed fold increase in IL-2 secretion measured by ELISA assay; type: functional, T cell line; note: reference of the scale not given here
[4] = Induction of anti-CD3/CD28 antibodies-stimulated human T cell activation at 0.3 uM assessed fold increase in IL-2 secretion measured by ELISA assay; type: functional, T cell line
[5] = Induction of anti-CD3/CD28 antibodies-stimulated human T cell activation at 4 uM assessed fold increase in IL-2 secretion measured by ELISA assay; type: functional, T cell line
[6] = Induction of anti-CD3 antibodies-stimulated human T cell activation at 1 uM assessed fold increase in CD25 expression measured by ELISA assay; type: functional, T cell line; note: reference of the scale not given here
[7] = Induction of anti-CD3 antibodies-stimulated human T cell activation at 1 uM assessed fold increase in IL-2 secretion measured by ELISA assay; type: functional, T cell line; note: reference of the scale not given here
[8] = Induction of anti-CD3/CD28 antibodies-stimulated human T cell activation at 4 uM assessed fold increase in CD25 expression measured by ELISA assay; type: functional, T cell line
[9] = Induction of anti-CD3/CD28 antibodies-stimulated human T cell activation at 0.3 uM assessed fold increase in CD25 expression measured by ELISA assay; type: functional, T cell line
[10] = Induction of anti-CD3/CD28 antibodies-stimulated human T cell activation at 1 uM assessed fold increase in IL-2 secretion measured by ELISA assay; type: functional, T cell line
[11] = target: E3 ubiquitin-protein ligase CBL-B (Homo sapiens, UniProt Q13191); assay: Inhibition of N-terminal Avi-tagged human CBL-B (36 to 427 residues) incubated with 60 nM Src kinase for 1.5 hrs followed by incubation with fluorescently labeled UbcH5B-Ub for 1 hr and measured by TR-FRET assay; type: single protein
Sequence of E3 ubiquitin-protein ligase CBL-B (Q13191 whole entry, the tested form may be a part): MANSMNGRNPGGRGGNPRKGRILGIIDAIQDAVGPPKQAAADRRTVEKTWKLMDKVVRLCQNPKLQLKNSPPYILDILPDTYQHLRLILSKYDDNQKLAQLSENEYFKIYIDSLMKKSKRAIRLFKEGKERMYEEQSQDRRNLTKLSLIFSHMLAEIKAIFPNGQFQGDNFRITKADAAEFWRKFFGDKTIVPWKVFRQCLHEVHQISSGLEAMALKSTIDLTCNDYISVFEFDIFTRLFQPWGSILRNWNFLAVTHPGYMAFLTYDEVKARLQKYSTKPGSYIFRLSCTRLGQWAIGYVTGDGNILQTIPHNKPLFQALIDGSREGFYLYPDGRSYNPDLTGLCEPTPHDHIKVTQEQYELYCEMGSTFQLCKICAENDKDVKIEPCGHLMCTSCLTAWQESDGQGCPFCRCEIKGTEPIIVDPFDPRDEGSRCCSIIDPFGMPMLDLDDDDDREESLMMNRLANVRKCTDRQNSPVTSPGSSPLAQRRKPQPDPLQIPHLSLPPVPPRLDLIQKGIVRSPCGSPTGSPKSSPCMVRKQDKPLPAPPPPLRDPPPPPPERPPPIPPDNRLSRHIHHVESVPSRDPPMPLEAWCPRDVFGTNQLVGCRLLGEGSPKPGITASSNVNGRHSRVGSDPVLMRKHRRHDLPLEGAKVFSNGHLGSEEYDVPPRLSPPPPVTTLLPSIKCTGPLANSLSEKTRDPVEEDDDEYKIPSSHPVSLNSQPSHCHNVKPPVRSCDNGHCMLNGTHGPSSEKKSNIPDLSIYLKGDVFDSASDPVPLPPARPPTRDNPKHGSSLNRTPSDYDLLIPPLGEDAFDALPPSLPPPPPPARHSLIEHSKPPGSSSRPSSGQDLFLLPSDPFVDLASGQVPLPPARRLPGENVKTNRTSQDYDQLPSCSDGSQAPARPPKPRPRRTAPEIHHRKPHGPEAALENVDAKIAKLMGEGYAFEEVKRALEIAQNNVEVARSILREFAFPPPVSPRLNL

Row | Compound | IC50 [11] [nM] | fold change (FC) [1] | fold change (FC) [2] | fold change (FC) [3] | fold change (FC) [4] | fold change (FC) [5] | fold change (FC) [6] | fold change (FC) [7] | fold change (FC) [8] | fold change (FC) [9] | fold change (FC) [10] | fold change (FC) ([2]; 8 µM) | fold change (FC) ([4]; 0.3 µM) | fold change (FC) ([5]; 4 µM) | fold change (FC) ([7]; 1 µM) | fold change (FC) ([10]; 1 µM)
1 | Cn1cnnc1[C@@H]1C[C@@H]1c1cccc(N2Cc3c(cc(C#N)cc3C(F)(F)F)C2=O)c1 | – | 1.01 | 0.801 | 0.101 | 1.01 | 2.51 | 0.601 | <=0.05 | 1.01 | 1.01 | 1.01 | – | – | – | – | –
2 | CCn1cnnc1C[C@@H](C)c1cccc(NC(=O)c2cc(C(=O)N3C[C@@H](O)C[C@H]3C)ccn2)c1 | – | 1.01 | 0.601 | 0.151 | <=1 | 1.01 | 0.601 | 0.151 | 1.01 | 1.01 | <=1 | – | – | – | – | –
3 | Cc1cc(C(=O)Nc2cccc([C@H](C)Cc3nncs3)c2)nc(C2CC2)n1 | – | 1.01 | 0.801 | >=0.201 | 1.01 | 5 | 0.601 | 0.101 | 1.01 | 1.01 | 2.51 | – | – | – | – | –
4 | C[C@H](Cc1nncn1C)c1cccc(N2Cc3c(ccnc3C(C)(C)F)C2=O)c1 | – | – | – | – | – | >=7.5 | – | – | – | – | – | – | – | – | – | –
5 | Cc1ccc(C(=O)Nc2cccc([C@@H](C)Cc3nccn3C)c2)nc1C1CC1 | – | – | – | – | – | – | – | – | – | – | – | 0.601 | 1.01 | 1.01 | <=0.05 | 1.01
6 | Cc1conc1CC1(c2cccc(NC(=O)c3cc(CN4CCC5(CC5)C4)cc(C4CC4)n3)c2)COC1 | < 100 | 1.31 | – | – | >=7.5 | – | >=1.001 | >=0.201 | – | 1.31 | >=7.5 | – | – | – | – | –
7 | Cn1cnnc1CC1(c2cccc(NC(=O)c3csc(C(F)(F)F)n3)c2)COC1 | < 100 | 1.01 | – | – | 1.01 | – | 0.601 | 0.051 | – | 1.01 | 1.01 | – | – | – | – | –
8 | CC(c1cc2c(c(C3CC3)n1)CN(c1cccc(C3(Cc4nncn4C)COC3)c1)C2=O)N1CC2(CC2)C1 (configuration not stated) | < 100 | 1.01 | – | – | 1.01 | – | 0.601 | <=0.05 | – | 1.01 | 2.51 | – | – | – | – | –
9 | CCOc1cc(N2Cc3c(cc([C@H](C)N4CC[C@H](F)C4)cc3C(F)(F)F)C2=O)cc(C2(Cc3nncn3C)COC2)c1 | < 100 | 1.51 | – | – | 2.51 | – | >=1.001 | 0.151 | – | 1.31 | >=7.5 | – | – | – | – | –
10 | Cn1cnnc1CC1(c2cccc(N3Cc4c(cc(N5CC(C(F)F)C5)nc4C4CC4)C3=O)c2)COC1 | < 100 | 1.01 | – | – | 2.51 | – | 0.801 | 0.101 | – | 1.01 | 5 | – | – | – | – | –
11 | Cc1cc(C(=O)Nc2cccc(C3(Cc4nncn4C)CC(F)(F)C3)c2)nc(C2CC2)n1 | < 100 | 1.01 | – | – | 5 | – | >=1.001 | >=0.201 | – | 1.01 | >=7.5 | – | – | – | – | –
12 | Cn1cnnc1[C@@H](F)C1(c2cccc(N3Cc4c(cc(CN5CCCC5)cc4C(F)(F)F)C3=O)c2)COC1 | < 100 | >=1.76 | – | – | 5 | – | >=1.001 | >=0.201 | – | >=1.76 | >=7.5 | – | – | – | – | –
13 | CN(C)Cc1cc(C(=O)Nc2cccc(C3(Cc4nncn4C)COC3)c2)nc(C2CC2)n1 | < 100 | 1.31 | – | – | 2.51 | – | >=1.001 | 0.101 | – | 1.31 | >=7.5 | – | – | – | – | –
14 | CN1C2CCC1CN(c1cc3c(c(C(F)(F)F)c1)CN(c1cccc(C4(Cc5nncn5C)COC4)c1)C3=O)C2 | < 100 | 1.01 | – | – | 2.51 | – | >=1.001 | 0.151 | – | 1.01 | 5 | – | – | – | – | –
15 | COc1cc(C(=O)Nc2cccc(C3(Cc4nncn4C)COC3)c2)nc(C2CC2)n1 | < 100 | 1.31 | – | – | 5 | – | >=1.001 | 0.151 | – | 1.01 | >=7.5 | – | – | – | – | –
16 | Cc1cc(C(=O)Nc2cccc(C3(Cc4nncn4C)CCC3)c2)nc(C2CC2)n1 | < 100 | 1.31 | – | – | >=7.5 | – | >=1.001 | 0.051 | – | 1.31 | >=7.5 | – | – | – | – | –
17 | Cc1c[nH]nc1-c1cc([C@H](C)Cc2nncn2C)cc(N2Cc3c(cccc3C(F)(F)F)C2=O)n1 | ≤ 300 | 1.01 | – | – | 1.01 | – | <=0.6 | 0.051 | – | 1.01 | 1.01 | – | – | – | – | –
18 | Cn1cnnc1[C@H](F)C1(c2cccc(N3Cc4c(cc(CN5CCCC5)cc4C(F)(F)F)C3=O)c2)COC1 | < 100 | 1.31 | – | – | >=7.5 | – | >=1.001 | >=0.201 | – | 1.31 | >=7.5 | – | – | – | – | –
19 | Cn1cnnc1CC1(c2cccc(NC(=O)c3cc(CN4CCCCC4)nc(C4CC4)n3)c2)COC1 | < 100 | >=1.76 | – | – | >=7.5 | – | >=1.001 | >=0.201 | – | >=1.76 | >=7.5 | – | – | – | – | –

Continued, in another order:

Row | IC50 [11] [nM] | Compound | fold change (FC) [1] | fold change (FC) [2] | fold change (FC) [3] | fold change (FC) [4] | fold change (FC) [5] | fold change (FC) [6] | fold change (FC) [7] | fold change (FC) [8] | fold change (FC) [9] | fold change (FC) [10] | fold change (FC) ([2]; 8 µM) | fold change (FC) ([4]; 0.3 µM) | fold change (FC) ([5]; 4 µM) | fold change (FC) ([7]; 1 µM) | fold change (FC) ([10]; 1 µM)
20 | < 100 | CC(O)c1cc2c(c(C(F)(F)F)c1)CN(c1cccc(C3(Cc4nncn4C)COC3)c1)C2=O (configuration not stated) | 1.01 | – | – | 1.01 | – | >=1.001 | 0.151 | – | 1.01 | 2.51 | – | – | – | – | –
21 | < 100 | Cn1cnnc1CC1(c2cccc(N3Cc4c(cc(C5=CCOC5)cc4C(F)(F)F)C3=O)c2)COC1 | 1.31 | – | – | 2.51 | – | 0.801 | 0.101 | – | 1.01 | 2.51 | – | – | – | – | –
22 | < 100 | Cn1cnnc1CC1(c2cccc(N3Cc4c(cc(CN5CC[C@@H]6C[C@@H]65)cc4C(F)(F)F)C3=O)c2)COC1 | 1.51 | – | – | >=7.5 | – | >=1.001 | >=0.201 | – | 1.51 | >=7.5 | – | – | – | – | –
23 | < 100 | CN1CCN(c2cc3c(c(C(F)(F)F)c2)CN(c2cccc(C4(Cc5nncn5C)COC4)c2)C3=O)CC12CC2 | 1.51 | – | – | 2.51 | – | >=1.001 | 0.151 | – | 1.31 | 5 | – | – | – | – | –
24 | < 100 | Cn1cnnc1CC1(c2cccc(N3Cc4c(cc(CN5CC[C@@H](CO)C(F)(F)C5)cc4C(F)(F)F)C3=O)c2)COC1 | 1.31 | – | – | 2.51 | – | 0.801 | 0.101 | – | 1.31 | >=7.5 | – | – | – | – | –
25 | < 100 | CC1C(C(F)(F)F)CCN1Cc1cc2c(c(C(F)(F)F)c1)CN(c1cccc(C3(Cc4nncn4C)COC3)c1)C2=O (configuration not stated) | 1.31 | – | – | 5 | – | >=1.001 | 0.051 | – | 1.01 | >=7.5 | – | – | – | – | –
26 | < 100 | Cn1cnnc1CC1(c2cccc(N3Cc4c(cc(OC(F)F)cc4C(F)(F)F)C3=O)c2)COC1 | 1.31 | – | – | 2.51 | – | 0.801 | 0.051 | – | 1.01 | 5 | – | – | – | – | –
27 | < 100 | Cn1cnnc1CC1(c2cccc(N3Cc4c(cc(CN5CCc6ccccc6C5)cc4C(F)(F)F)C3=O)c2)COC1 | 1.31 | – | – | 5 | – | >=1.001 | >=0.201 | – | 1.01 | >=7.5 | – | – | – | – | –
28 | < 100 | COc1ccc2c(c1)CN(Cc1cc3c(c(C(F)(F)F)c1)CN(c1cccc(C4(Cc5nncn5C)COC4)c1)C3=O)C2 | 1.31 | – | – | >=7.5 | – | >=1.001 | >=0.201 | – | 1.31 | >=7.5 | – | – | – | – | –
